We go through 2 substances from patent US12156850B2, “Preservative removal from eye drops containing hydrophilic drugs” (University of Florida Research Foundation, Inc., priority 2017, dated 2024).

Data set [1] is described as follows: Equilibrium interfacial tension calibration of BAK solutions, Langmuir adsorption isotherm fit. In kind it is physicochemical. Conditions: Langmuir fit of b275. As to the method:
The dynamic interfacial tension of filtered ophthalmic formulations was measured via pendant drop tensiometry using the commercially automated instrument named Kruss DSA 100 (Drop Shape Analyzer). A pendant drop is a drop of the filtered formulation was suspended at the tip of a 14-gauge needle with air as the surrounding phase. The silhouette of the axisymmetric formulation drop is imaged at regular time intervals and iteratively fit to Young-Laplace equation to measure its dynamic surface tension as a function of time. This robust method is commonly employed due to a high-speed and precise estimation of interfacial tension based on drop curvature and concentration of the formulation. […]
[formula] where Γeq is the equilibrium molar surface concentration, Γ∞ is the maximum molar surface concentration, C is the bulk concentration of the aqueous formulation, α and β are adsorption and desorption constants, R is the ideal gas constant, γO is the interfacial tension of the pure solvent (PBS), γ is the equilibrium interfacial tension recorded after 12 minutes of interfacial surface generation, and T is the operating temperature for acquisition of interfacial tension of drug/BAK formulation (recorded at room temperature, 298 K). […]

How the values of data set [2] were obtained: The partition coefficients of hydrophilic drugs and BAK in p-HEMA, p-HEMA/t-butyl methacrylate, and p-HEMA/TRIS/t-butyl methacrylate particles were obtained by drug uptake studies. The mass of drug or BAK partitioned into p-HEMA hydrogel matrix was determined by monitoring the amount of drug or BAK lost in the concentrated aqueous drug/PBS or BAK/PBS loading solutions. The amount of drug loss from the concentrated aqueous phase was quantified by time-dependent absorbance measurements using UV-Vis spectrophotometry in a broad spectral range. […]
Time-dependent equilibrium interfacial tension measured via pendant drop tensiometry can be used to quantify the amount of BAK loss from the concentrated aqueous phase. […]
The partition coefficient of BAK in p-HEMA and p-HEMA/Tert-butyl methacrylate particle matrices were obtained by uptake studies. […] The mass of BAK partitioned in the p-HEMA and p-HEMA/TBM particle matrix was determined by monitoring the amount of BAK lost in the concentrated aqueous BAK/PBS loading solutions. The amount of BAK lost from the concentrated aqueous phase was quantified by time-dependent absorbance measurements using UV-Vis spectrophotometry (Genesys™ 10 UV, Thermo Spectronic, Rochester, NY, USA) over a wavelength range of 190-500 nm. […]

For the substance Benzalkonium chloride [BAK], in data set [1], the “Γ∞ (maximum surface coverage)” value is recorded as 0.003309 mol/m^2 and the “β/α (ratio of kinetic rate constants)” value amounted to 462.14 m^3/mol.

Consider “poly(hydroxyethyl methacrylate) [p-HEMA]”, for which the “partition coefficient for BAK” value in data set [2] is 100-500.
